Source: patent publication US20250212880A1, “COMPOSITION FOR COATING PLANT SEED” (priority 2022, published 2025)

Assays:
Format in all cases: in vivo
[1] = tested on: Zea mays; test: Field test of Zea mays (ear yield); conditions: field cultivation, Belgium; seed coating 0.25 g tryptophan and/or 1000 g allantoin per tonne of seeds
Protocol: In the same manner as in Example 1, Zea mays seeds coated with 0.25 g of tryptophan per tonne of seeds, Zea mays seeds coated with 1000 g of allantoin per tonne of seeds, and Zea mays seeds coated with 0.25 g of tryptophan and 1000 g of allantoin per tonne of seeds were prepared. As a control group, seeds without coating were prepared.
• Location: the Wilderen MAR field, the Kingdom of Belgium • Variety: LIKEiT • Date of seeding: Apr. 27, 2020 • Date of harvesting: Oct. 12, 2020
Cultivation was performed in accordance with the conventional fertilization management technique and pest management technique, and the yield was inspected. • Inspection of yield: 120 strains/group; the number of repetitions: 4

[2] = tested on: wheat; test: Cultivation of wheat from coated seeds under non-stress conditions; conditions: 2 weeks after seeding, seed coating Trp 0.045-9 g and/or allantoin 50 g per tonne of seeds
Protocol: (§1) Wheat seeds (100 g, the variety: Yumechikara) were coated with 800 μL of a coating solution comprising tryptophan, allantoin, polyvinyl alcohol, and a coloring dye in water using a coater (SATEC). Coating was performed using either or both of tryptophan in an amount of 0 g, 0.045 g, 0.45 g, 4.5 g, or 9 g and allantoin in an amount of 0 g or 50 g per tonne of seeds.
(§2) Culture soil was filled into 12-cm vinyl pots, and the coated wheat seeds were seeded at 4 grains/pot. After germination, a differently grown strain was thinned to retain 3 strains in a pot. Cultivation was performed in a glass greenhouse, and inspection was performed 2 weeks after seeding. The test was repeated 6 times, and the average was determined.
(§3) The measured fresh weight of the aboveground part of plants in groups each treated with different amounts of tryptophan and allantoin was indicated as the rate of change (%), relative to the fresh weight of the aboveground part of plants in the test group (control group) treated with a coating solution not comprising tryptophan or allantoin.

[3] = tested on: soybean; test: Cultivation of soybean from coated seeds under salt stress conditions; conditions: salt stress (NaCl 1.0 g/L soil), 3 weeks after seeding, seed coating Trp 0.045-5 g and/or allantoin 50 g per tonne of seeds
Protocol: (§4) Soybean seeds (100 g; the variety: Fukuyutaka) were coated with 800 μL of a coating solution comprising tryptophan, allantoin, polyvinyl alcohol, and a coloring dye in water using a coater (SATEC). Coating was performed using either or both of tryptophan in an amount of 0 g, 0.045 g, 0.225 g, 0.45 g, or 5 g and allantoin in an amount of 0 g or 50 g per tonne of seeds.
Culture soil comprising sodium chloride at 1.0 g/L of the soil was filled into 7.5-cm pots, and the coated soybean seeds were seeded at 1 grain/pot. Cultivation was performed in a glass greenhouse, and inspection was performed 3 weeks after seeding. The dry weight of the underground part was measured. The test was repeated 9 times, and the average was determined.

[4] = tested on: Zea mays; test: Cultivation of Zea mays from coated seeds under non-stress conditions; conditions: dent corn, 3 weeks (21 days) after seeding, seed coating Trp 0.045-0.45 g and/or allantoin 50 or 500 g per tonne of seeds
Protocol: Dent corn seeds (100 g; the variety: Snow-dent “Otoha”) were coated with 800 μL of a coating solution comprising tryptophan, allantoin, polyvinyl alcohol, and a coloring dye in water using a coater (SATEC). Coating was performed using either or both of tryptophan in an amount of 0 g, 0.045 g, 0.225 g, or 0.45 g and allantoin in an amount of 0 g, 50 g, or 500 g per tonne of seeds (MT).
as §2, with “dent corn” for “wheat”, “21 days” for “2 weeks”, “seeding. The height, the fresh weight of the aboveground part, and the dry weight of the underground part were measured, and the density (the fresh weight of the aboveground part/the height) was determined. […]” for “seeding.”
The fresh weight of the aboveground part, the density, and the dry weight of the underground part measured for groups each treated with different amounts of tryptophan and allantoin were indicated as the rates of changes (%), relative to the fresh weight of the aboveground part, the density, and the dry weight of the underground part of plants in the test group (control group) treated with a coating solution not comprising tryptophan or allantoin. […]

[5] = tested on: wheat; test: Cultivation of wheat from coated seeds under salt stress conditions; conditions: salt stress (NaCl 4.0 g/L soil), 2 weeks after seeding, seed coating Trp 0.045-9 g and/or allantoin 50 g per tonne of seeds
Protocol: as §1, with “(100 g;” for “(100 g,”
Culture soil comprising sodium chloride at 4.0 g/L of the soil was filled into 7.5-cm pots, and the coated wheat seeds were seeded at 1 grain/pot. Cultivation was performed in a glass greenhouse, and inspection was performed 16 days after seeding. The height and the fresh weight of the aboveground part were measured, and the density (the fresh weight of the aboveground part/the height) was determined. The test was repeated 9 times, and the average was determined.
The density of the test groups treated with different amounts of tryptophan and allantoin was indicated as the rate of change (%), relative to the density of the test group (control group) treated with a coating solution not comprising tryptophan or allantoin.

[6] = tested on: soybean; test: Cultivation of soybean from coated seeds under non-stress conditions; conditions: 3 weeks after seeding, seed coating Trp 0.225-5 g and/or allantoin 25 g per tonne of seeds
Protocol: as §4, with “g,” for “g, 0.045 g,”, “25” for “50”
as §2, with “coated soybean” for “coated wheat”, “performed 3” for “performed 2”
as §3

SMILES | ear yield relative to the control group (100%) [1] [%] | rate of change in the fresh weight of the aboveground part relative to control group [2] [%] | rate of change in the dry weight of the underground part relative to control group [3] [%] | rate of change in the fresh weight of the aboveground part relative to control group [4] [%] | rate of change in the density relative to control group [5] [%] | rate of change in the fresh weight of the aboveground part relative to control group [6] [%]
NC(=O)NC1NC(=O)NC1=O (stereo not shown) [allantoin, 5-ureidohydantoin] | 100.4 | 1 | 2 | 5 | 3 | 4
N[C@@H](Cc1c[nH]c2ccccc12)C(=O)O [tryptophan, L-tryptophan] | 100.4 |  |  |  |  | 
